≈ marks a conversion by molar mass, not a printed value.
Assays:
[1] = system: Acinetobacter calcoaceticus subsp. anitratus; assay: In vitro antibacterial activity of compound was measured against gram negative Acinetobacter anitratus 150001; assay type: functional
[2] = system: Alcaligenes faecalis; assay: In vitro antibacterial activity of compound was measured against gram negative Alcaligenes faecalis 140001; assay type: functional
[3] = system: Bacteroides fragilis; assay: In vitro antibacterial activity of compound was measured against gram negative Bacteroides fragilis ATCC 25285; assay type: functional
[4] = system: Bacillus subtilis; assay: In vitro antibacterial activity of compound was measured against gram positive Bacillus subtilis ATCC 6633; assay type: functional
[5] = system: Clostridium perfringens; assay: In vitro antibacterial activity of compound was measured against gram positive Clostridium perfringens 70500; assay type: functional
[6] = system: Escherichia coli; assay: In vitro antibacterial activity of compound was measured against gram negative Escherichia coli 6R; assay type: functional
[7] = system: Escherichia coli; assay: In vitro antibacterial activity of compound was measured against gram negative Escherichia coli K12; assay type: functional
[8] = system: Klebsiella pneumoniae; assay: In vitro antibacterial activity of compound was measured against gram negative Klebsiella pneumoniae ATCC 10031; assay type: functional
[9] = system: Mycobacterium tuberculosis; assay: In vitro antibacterial activity of compound was measured against gram positive Mycobacterium tuberculosis H37Rv (human); assay type: functional
[10] = system: Proteus vulgaris; assay: In vitro antibacterial activity of compound was measured against gram negative Proteus vulgaris XL; assay type: functional
[11] = system: Proteus inconstans; assay: In vitro antibacterial activity of compound was measured against gram negative Proteus inconstans NCTC 8055; assay type: functional; conditions: Providencia alcalifaciens
[12] = system: Salmonella typhimurium; assay: In vitro antibacterial activity of compound was measured against gram negative Salmonella Typhimurium 51; assay type: functional, Salmonella enterica subsp. enterica serovar Typhimurium; conditions: Salmonella enterica
[13] = system: Serratia marcescens; assay: In vitro antibacterial activity of compound was measured against gram negative Serratia marcescens; assay type: functional
[14] = system: Shigella sonnei; assay: In vitro antibacterial activity of compound was measured against gram negative Shigella sonnei; assay type: functional
[15] = system: Streptococcus pneumoniae; assay: In vitro antibacterial activity of compound was measured against gram positive Streptococcus pneumoniae; assay type: functional
[16] = system: Staphylococcus aureus; assay: In vitro antibacterial activity of compound was measured against gram positive Staphylococcus aureus 1110 pen.rez.; assay type: functional
[17] = system: Staphylococcus aureus; assay: In vitro antibacterial activity of compound was measured against gram positive Staphylococcus aureus SMITH; assay type: functional
[18] = system: Streptococcus pyogenes; assay: In vitro antibacterial activity of compound was measured against gram positive Streptococcus pyogenes A 115 ROBB; assay type: functional
[19] = system: Streptococcus pyogenes; assay: In vitro antibacterial activity of compound was measured against gram positive Streptococcus pyogenes A 118; assay type: functional
[20] = system: Enterococcus faecalis; assay: In vitro antibacterial activity of compound was measured against gram positive Streptococcus faecalis; assay type: functional
[21] = system: Pseudomonas aeruginosa; assay: In vitro antibacterial activity of compound was measured against gram negative Pseudomonas pyocyanea NCTC 10490; assay type: functional, pseudomona pyocyanea
[22] = system: Mycobacterium tuberculosis; assay: In vitro antibacterial activity of compound was measured against gram positive Mycobacterium tuberculosis Ravenel(bovin); assay type: functional
[23] = system: Bordetella bronchiseptica; assay: In vitro antibacterial activity of compound was measured against gram negative Bordetella bronchiseptica ATCC 4617; assay type: functional

Row | SMILES | MIC [1] [µg/mL] | MIC [2] [µg/mL] | MIC [3] [µg/mL] | MIC [4] [µg/mL] | MIC [5] [µg/mL] | MIC [8] [µg/mL] | MIC [9] [µg/mL] | MIC [10] [µg/mL] | MIC [11] [µg/mL] | MIC [12] [µg/mL] | MIC [13] [µg/mL] | MIC [14] [µg/mL] | MIC [15] [µg/mL] | MIC [16] [µg/mL] | MIC [17] [µg/mL] | MIC [18] [µg/mL] | MIC [19] [µg/mL] | MIC [20] [µg/mL] | MIC [22] [µg/mL] | MIC [23] [µg/mL] | other results
1 | CN1CCN(c2cc3c(cc2F)c(=O)c(C(=O)O)cn3N2C3CCCCC32)CC1 (stereo unspecified) | 12.5 (≈ 31.2 µM) | 100 (≈ 250 µM) | 25 (≈ 62.4 µM) | 3.1 (≈ 7.74 µM) | 100 (≈ 250 µM) | 0.8 (≈ 2 µM) | 6.2 (≈ 15.5 µM) | 50 (≈ 125 µM) | 100 (≈ 250 µM) | 25 (≈ 62.4 µM) | 50 (≈ 125 µM) | 12.5 (≈ 31.2 µM) | 100 (≈ 250 µM) | 50 (≈ 125 µM) | 50 (≈ 125 µM) | 100 (≈ 250 µM) | 100 (≈ 250 µM) | > 100 | 3.1 (≈ 7.74 µM) | 25 (≈ 62.4 µM) | MIC [6]: 100 µg/mL (≈ 250 µM); MIC [7]: 50 µg/mL (≈ 125 µM); MIC [21]: 100 µg/mL (≈ 250 µM)
2 | CN1CCN(c2cc3c(cc2F)c(=O)c(C(=O)O)cn3N2CC2c2ccccn2)CC1 (stereo unspecified) | > 100 | > 100 | 50 (≈ 118 µM) | 50 (≈ 118 µM) | 50 (≈ 118 µM) | 50 (≈ 118 µM) | 50 (≈ 118 µM) | > 100 | > 100 | 100 (≈ 236 µM) | 100 (≈ 236 µM) | 12.5 (≈ 29.5 µM) | 25 (≈ 59 µM) | 100 (≈ 236 µM) | 50 (≈ 118 µM) | 50 (≈ 118 µM) | 50 (≈ 118 µM) | 100 (≈ 236 µM) | 25 (≈ 59 µM) | 100 (≈ 236 µM) | MIC [6]: 100 µg/mL (≈ 236 µM); MIC [7]: 100 µg/mL (≈ 236 µM); MIC [21]: 100 µg/mL (≈ 236 µM)
3 | CN1CCN(c2cc3c(cc2F)c(=O)c(C(=O)O)cn3N2CC2c2ccccc2)CC1 (stereo unspecified) | 50 (≈ 118 µM) | 100 (≈ 237 µM) | 6.2 (≈ 14.7 µM) | 6.2 (≈ 14.7 µM) | 6.2 (≈ 14.7 µM) | 3.1 (≈ 7.34 µM) | 6.2 (≈ 14.7 µM) | 50 (≈ 118 µM) | 100 (≈ 237 µM) | 50 (≈ 118 µM) | 100 (≈ 237 µM) | 6.2 (≈ 14.7 µM) | 5 (≈ 11.8 µM) | 25 (≈ 59.2 µM) | 12.5 (≈ 29.6 µM) | 10 (≈ 23.7 µM) | 10 (≈ 23.7 µM) | 25 (≈ 59.2 µM) | 3.1 (≈ 7.34 µM) | 6.2 (≈ 14.7 µM) | MIC [6]: 100 µg/mL (≈ 237 µM); MIC [7]: 50 µg/mL (≈ 118 µM); MIC [21]: 100 µg/mL (≈ 237 µM)
4 | O=C(O)c1cn(C2CC2)c2cc(N3CCNCC3)c(F)cc2c1=O [CIPROFLOXACIN] | 0.25 (≈ 0.754 µM) | 1 (≈ 3.02 µM) | 6.2 (≈ 18.7 µM) | 0.03 (≈ 0.0905 µM) | – | 0.008 (≈ 0.0241 µM) | 0.2 (≈ 0.604 µM) | 0.008 (≈ 0.0241 µM) | 0.03 (≈ 0.0905 µM) | 0.015 (≈ 0.0453 µM) | 0.03 (≈ 0.0905 µM) | 0.015 (≈ 0.0453 µM) | 1 (≈ 3.02 µM) | 0.25 (≈ 0.754 µM) | 0.12 (≈ 0.362 µM) | 1 (≈ 3.02 µM) | 1 (≈ 3.02 µM) | 1 (≈ 3.02 µM) | 0.05 (≈ 0.151 µM) | 0.25 (≈ 0.754 µM) | –
5 | CN1CCN(c2c(F)cc3c(=O)c(C(=O)O)cn(N4CC4c4cccc(C(F)(F)F)c4)c3c2F)CC1 (stereo unspecified) | 100 (≈ 197 µM) | 100 (≈ 197 µM) | 50 (≈ 98.3 µM) | 50 (≈ 98.3 µM) | 100 (≈ 197 µM) | 12.5 (≈ 24.6 µM) | 100 (≈ 197 µM) | 100 (≈ 197 µM) | 100 (≈ 197 µM) | 50 (≈ 98.3 µM) | 100 (≈ 197 µM) | 12.5 (≈ 24.6 µM) | 25 (≈ 49.2 µM) | 50 (≈ 98.3 µM) | 25 (≈ 49.2 µM) | 100 (≈ 197 µM) | 100 (≈ 197 µM) | 50 (≈ 98.3 µM) | 50 (≈ 98.3 µM) | 100 (≈ 197 µM) | MIC [6]: 100 µg/mL (≈ 197 µM); MIC [7]: 50 µg/mL (≈ 98.3 µM); MIC [21]: 100 µg/mL (≈ 197 µM)

Source: ChEMBL document CHEMBL1129105, “Synthesis and biological evaluation of N-(1-aziridino)-6-fluoro-quinolone-3-carboxylic acids” (1996)
